Where two headings read alike, the source gives them in different places.
What was measured:
[1] = tested on: A2780/C30 cisplatin-resistant ovarian cell line; test: Clonogenic assay, cisplatin/carboplatin-resistant C30; type: cell-based, human; settings: 1 hour drug treatment, 1 week colony formation
Procedure: A cisplatin-resistant Ovarian cell line (C30) (Hamaguchi, et al., 1993), obtained from Dr. Thomas Hamilton (Fox Chase Cancer Center, Philadelphia, Pa.), was treated with the monomeric platinum complexes of the present invention (shown in FIG. 2). This cell line is also cross resistant to carboplatin. Cells were cultured on monolayer using RPMI 1640 supplemented with 10% fetal bovine serum, 2 mM glutamine, 0.25 units/mL insulin and penicillin/streptomycin in a 37 degrees C. incubator continuously gassed with 5% CO2. Cells were subcultured using 0.025% trypsin in HBSS to maintain cells in exponential growth.
IC50 values were determined using a clonogenic assay. Briefly, 500 C30 cells from a single cell suspension were plated onto 60 mm Petri plates 24 hours before drug treatment to permit cell attachment. On the day of drug treatment, the medium was decanted and replaced with the drug and these treated cells were placed back into the 37 degrees C. incubator for 1 hour. Triplicate plates were set up for each drug concentration. After the one hour drug treatment, the drug containing medium was decanted and replaced with fresh medium. These plates were returned to the 37 degrees C. incubator for 1 week for colony formation. Colonies were fixed and stained using 2% crystal violet in absolute methanol. Colonies containing more than 50 cells were scored. The number of scored colonies from the triplicate plates was averaged and this number was divided by the number of cells plated to obtain a value for the fraction of cells forming colonies. These values for fraction of cells forming colonies were then corrected for plating efficiency by dividing them by the number of cells forming colonies in plates that were not treated with drug.

fas = test: Apoptotic gene array, real-time PCR: fas; type: cell-based; settings: preliminary
Procedure: (§1) Preliminary gene expression experiments involving complexes of the present invention as compared to cisplatin (data not shown) were carried out with an apoptotic array containing 84 genes that includes the BCL2 superfamily, both pro- and anti-apoptotic, caspases, the BIR-family, TNF receptor […] factors, p53 and its congeners, and fas associated members by real-time PCR. A closer look at the two sets of gene expressions clearly indicates a number of differences in the expression patterns. […] Specifically, fas was over-expressed by 6-fold compared to the control, and TNFRS genes such as TNFRSF-10B was overexpressed by 2-3 folds over controls. These latter receptor factors belong to the fas superfamily.

[2] = tested on: UMSCC10b (Cisplatin-sensitive) cells; test: Cytotoxicity in head and neck cancer cells, cisplatin-sensitive; type: cell-based, human
Procedure: (§2) The UMSCC10b (Cisplatin-sensitive) and UMSCC10b/15s (Cisplatin-resistant) cell lines derived from human head and neck squamous cell cancer were lines were obtained from Dr. Stephen B. Howell of the University of California, Dan Diego. Cells were cultured in 1640 RPMI with 10% fetal bovine serum, 100 units/ml penicillin and 100 μg/m1 of streptomycin. Cells were seeded into 24-well plates with approximately 20,000 cells/500 μl of media in each well plate. Cells were exposed to dach-2 with variable concentrations ranging from 1.12 μM to maximum of 72 μM. Stock solutions of dach-2 complex were prepared and aliquots of these solutions were added to make those effective concentrations. Cells were then allowed to grow for 72 hours. Twelve different concentrations were used in this study. Each concentration had one control for a total of 12 controls.

BAK1 = test: Apoptotic gene array, real-time PCR: BAK1; type: cell-based; settings: preliminary
Procedure: as §1

TNFRSF-10B = test: Apoptotic gene array, real-time PCR: TNFRSF-10B; type: cell-based; settings: preliminary
Procedure: as §1

A2780 cells = test: Cellular accumulation of platinum by atomic absorption, A2780; type: cell-based, human; settings: for Cellular accumulation of platinum: 1 hr exposure
Procedure: Platinum content was quantitatively estimated on a Graphite Furnace Atomic Absorption Spectrometer (Perkin Elmer AA-600) from calibration curves established by using cisplatin or pyrodach-2 in water. Cells (5×10^6) were seeded in T75 cm^2 flasks. After 24 h, these cells were then treated with the different concentrations (0, 10, 20, 30 and 50 μM) of cisplatin and pyrodach-2. After 1 hr exposure with the platinum complexes, the drug-containing medium was removed and the cells were washed with ice-cold phosphate-buffered saline (PBS). The cells were then trypsinized and centrifuged into a pellet. Cell pellets were digested in concentrated HNO3 and H2O2 prior to analysis, according to the method of McGahan. Data reported in Table 4 were collected from three independent experiments each was carried out in duplicate. For the cisplatin accumulation, data were obtained from triplicate runs from a single sample at a given concentration.

guanine base = test: Guanine base binding by proton NMR; settings: cisplatin after 48 hours, am-2 96 hours, dach-2 106 hours
Procedure: FIG. 12 is a comparison of guanine base binding (the predominant DNA binding site of cisplatin) among cisplatin (bottom), am-2 (middle), and dach-2 (top) by proton NMR spectroscopy. […] The bottom spectrum was recorded after 48 hours. The middle and top spectra were recorded after 96 and 106 hours, respectively.
(§3) Proton NMR spectroscopic experiments were conducted on a Bruker 500 MHz NMR instrument in 99% (atom) D2O with a water suppression pulse sequence. Samples contained cisplatin (2.0 mM) or pyrodach-2 (2.0 mM) and nucleotides (5′-dGMP, 5′-dAMP, dGpG (5.0 mM)), and, single- and double stranded DNA (calf thymus, 5.0 mM) at pH 7.0 maintained by phosphate and carbonate buffers (10-20 mM). Reactions of cisplatin (0.25 mM) and pyrodach-2 (0.25 mM) with a synthetic 25-mer: 5′-[…]-3′ (SEQ ID NO: 1) (0.25 mM) were also performed under identical conditions. Reactions were carried out up to 7 days, and ^1H and ^31P NMR spectra were recorded at regular time intervals. Usually, a pulse width of 5 μs with a 1.0 s repetition delay was used for the measurements. Typically, a sweepwidth of 10,000 Hz and 32 K data points were selected to collect the Free Induction Decays. A line broadening factor of 1 Hz was for applied Fourier transformation. The chemical shifts, with reference to H—O-D peak, are at 4.67 ppm.

[3] = tested on: UMSCC10b/15s (Cisplatin-resistant) cells; test: Cytotoxicity in head and neck cancer cells, cisplatin-resistant; type: cell-based, human
Procedure: as §2

[4] = tested on: calf-thymus DNA, oligonucleotide, dGpG, 5'-dGMP and 5'-dAMP; test: Platinum binding to DNA and nucleotides by NMR; settings: 1H NMR, up to seven days
Procedure: In the associated experiment, dach-2 was allowed to react with double-stranded calf-thymus DNA, a synthetic oligonucleotide (5′-[…]-3′; SEQ ID NO:1), a dinucleotide (dGpG), and nucleotide monophosphates (5′-dGMP and 5′-dAMP) at concentrations as much as 250-times higher than those of cellular doses. The extent of DNA binding was monitored by ^1H NMR spectroscopy. In parallel, similar reactions with cisplatin were conducted under identical conditions.
as §3, with “The chemical shifts, with reference to H—O-D peak, are at 4.67 ppm.” left out

Compound: NC1CCCCC1N.O=P([O-])(O)OP(=O)([O-])O.[Pt+2] [dach-2, (Trans-1,2-cyclohexanediamine)(dihydrogenpyrophosphato)platinum(II)]
- IC50 [1]: 48 ± 5 µM
- fas over-expression compared to the control (fas): 6 fold
- IC50 ([2]; 72 hours growth, estimated, read-out: IC50 for UMSCC10b (Cisplatin-sensitive)): < 1 µM
- IC50 ([2]; FIG. 9 legend, read-out: IC50 cisplatin-sensitive head and neck cancer cells): < 1 µM
- BAK1 overexpression (BAK1): 2-3 folds
- TNFRSF-10B overexpression over controls (TNFRSF-10B): 2-3 folds
- Cellular accumulation of platinum (A2780 cells; A2780, 10 μM): 1.00 ± 0.10 ng/10^6 cells
- Cellular accumulation of platinum (A2780 cells; A2780, 20 μM): 1.50 ± 0.30 ng/10^6 cells
- Cellular accumulation of platinum (A2780 cells; A2780, 30 μM): 3.00 ± 1.00 ng/10^6 cells
- Cellular accumulation of platinum (A2780 cells; A2780, 50 μM): 5.00 ± 0.30 ng/10^6 cells
- accumulation in A2780 cells (A2780 cells; at 10 μM concentration): 1.0 ng Pt/10^6 cells
- guanine base binding (H8 signal) (guanine base): exhibits a signal for the free guanine base at 8.05 ppm
- IC50 ([3]; 72 hours growth, read-out: IC50 for UMSCC10b/15s (Cisplatin-resistant)): 5 µM
- IC50 ([3]; FIG. 9 legend, read-out: IC50 cisplatin-resistant head and neck cancer cells): < 5 µM
- adduct formation with nucleotides [4]: no detectable NMR signals
